Read-outs that look alike come from different tables or passages of the source. Square brackets hold non-standard residues; d marks the D form. Peptide text beside a SMILES is read from it.
Columns and labels:
[1] = test system: trypsin; details: peptide incubated in trypsin at 37° C. before adding STI
Experimental: The image documents 10-20% gradient gels run electrophoretically (e-gel), labeled with Imperial Protein Stain, and photographed. An e-gel was performed for each peptide, stained with Imperial stain, and photographed. The arrow markers show both the identity of the peptide run and its final location after migration. For each peptide assessment, lanes 1 contain peptide alone; lanes 2, peptide plus soybean trypsin inhibitor (STI); and lanes 3, peptide incubated in trypsin at 37° C. before adding STI.

[2] = test system: DENV2; assay: Post-binding FFU assay; assay type: cell-based, dengue virus; details: DN57 added after virus bound at 4° C.; data not shown, see Costin, et al., 2010
Experimental: Experiments were conducted further to characterize observed inhibitory effects as to whether these may have been due to interference with interactions occurring pre-binding, versus post-binding, of virions and LLC-MK2 target cells. An estimated 200 FFU of DENV2 were allowed to interact with target cells for 1 h at 4° C., permitting binding while preventing internalization. Unbound virus was washed off with PBS at 4° C., DN57 added, and the cultures incubated at 4° C. for 1 h, again washed in 4° C. PBS, and then warmed to 37° C. Finally, agarose overlays, incubation, and immunological detection assays were performed as described for the focus-forming assay.
Inasmuch as it was determined that inhibition by DN57 occurs at a viral-entry step, whether infection could still be inhibited after virus had bound to the surface of target cells was tested. In these experiments, virus was allowed to bind to cells at 4° C., then treated with increasing concentrations of DN57 before warming the cells to 37° C. providing conditions in favor of viral progression.

[3] = test system: DENV2; assay: Post-entry FFU assay; assay type: cell-based, dengue virus; details: any DN57 concentration; data not shown, see Costin, et al., 2010
Experimental: Experiments were conducted further to characterize observed inhibitory effects to determine whether they actually may have been due to interference with post-entry steps in the viral life cycle. To this end, approximately 200 FFU of DENV2 (without DN57) were allowed the opportunity to bind and then enter target LLC-MK2 cells for 1 h at 37° C. as described for the focus-forming assay. Any unbound virus was then removed by rinsing with PBS. Next, DN57 was added to the cells post-entry for 1 h at 37° C. Cultures again were washed with PBS and agarose overlays, incubation, and immunological detection assessments were performed as described for the focus-forming assay.

[4] = test system: DENV2; assay: LLC-MK2 FFU assay after trypsin exposure of peptide; assay type: cell-based, dengue virus
Experimental: Table 7. […] The peptides were exposed to trypsin for ten minutes at 37° C. before STI was added and further incubated ten minutes. The resulting peptide, in each case, was incubated with DENV2 for 1 hour at 20° C. and then this preparation used to infect confluent LLC-MK2 monolayers.

[5] = 1:2 dilution of NHS, 37° C., 24 h
Experimental: Lane 1 contains peptide alone/time=0; lane 2, peptide at 37° C./time=24 h; lane 3, peptide in a 1:2 dilution of NHS/time=0; lane 4, peptide in a 1:2 dilution of NHS @ 37° C./time=24 h; and lane 5, a 1:2 dilution of NHS with no peptide at 37° C./time=24 h.

[6] = test system: DENV2; assay: Pre-binding FFU assay (reversibility of peptide binding); assay type: cell-based, dengue virus
Experimental: Experiments were conducted further to characterize observed inhibitory effects and determine whether these may have been due to unintended interference owing to modifications of target LLC-MK2 cell surfaces. RI57 was incubated with target cells for 1 h at 4° C., the monolayer cells were then rinsed with PBS, and approximately 200 FFU of DENV2 allowed to infect the cells at 4° C. Agarose overlays, incubation, and immunological detection tests were conducted as described above for the focus-forming assay.
In this assay, DN57 or RI57 was added to target cells for 1 h prior to infection with DENV2 to determine whether these peptides inhibit entry through interaction directly with target cells. […] Table 5. (and also FIG. 7) presents results showing that peptide binding can be reversible. (and FIG. 5.). Introducing a step diluting the concentration of peptide 10-fold after incubating/1 h at 20° C. and then infecting immediately thereafter reverses this inhibition. Errors around the means are depicted as ±sd.

[7] = in vitro; details: rhesus monkey, LLC-MK2 cells (confluent monolayers)
Experimental: Possible direct cytotoxicity caused by peptide exposure to proliferating LLC-MK2 monolayers was measured using the TACS™ MTT cell proliferation assay (R&D Systems, Inc., Minneapolis, Minn.) according to the manufacturer's instructions. The MTT assay detects and measures mitochondrial reductase activity observable in viable cells. […] A Tecan GeniosPro plate reader (Tecan US, Durham, N.C.) was used to measure absorbance at 560 nm.
Error bars show ±standard deviations (±sd) of the means with an asterisk indicating instances of statistically-significant differences from control according to Dunnett's post hoc test (p<0.05).

[8] = test system: DENV2; assay: qRT-PCR virus-binding assay; assay type: cell-based, dengue virus
Experimental: Further to characterize DENV binding to host cells, experiments were conducted to analyze the first step in the process of infection. Infection of LLC-MK2 target cells in six-well plates was executed in duplicate using 10^5 FFU of DENV2 pre-incubated 45 min at 4° C. with either DN57, or RI57 peptide, or pooled heterotypic anti-DENV human serum. Following said 45 min exposure at 4° C., infected monolayers were washed with PBS and harvested by cell scraping, added to a 1.5 ml microfuge tube containing 350 μl AR-200 silicone oil (Sigma-Aldrich, St. Louis, Mo.), mixed with 150 μl silicone fluid (Thomas, Swedesboro, N.J.), and microfuge spun 1 min at 14,000 rpm to separate unbound virus from cell-bound virus. The tubes were then submerged in liquid nitrogen for 30 sec to freeze the contents. The cell pellets with (or without) bound virus were recovered by removing the bottoms of the tubes with small wire clippers and placing them in 15 ml conical tubes. By means of the Qiagen Viral RNA Extraction Kit (Qiagen, Chatsworth, Calif.), viral RNA was extracted from cell pellets.
Using the Quantitect SYBR Green RT-PCR kit (Qiagen Inc., Chatsworth, Calif.), qRT-PCR was performed on the extracted RNA. Manufacturer's specifications and amplification protocols were followed utilizing dengue-specific primers: (DenF: 5-[…]-3 and DenR: 5-[…]-3). […] The following amplification protocol was used: 50° C. for 20 min to reverse transcribe the RNA; 95° C. for 15 min to activate the HotStart Taq DNA Polymerase; 45 PCR cycles: 94° C. for 15 sec; 50° C. for 15 sec; 72° C. for 30 sec; and fluorescence data acquisition was the final step. […]
To test whether DN57 and RI57 interfere directly with virus binding to target cells, binding assays were conducted using qRT-PCR to monitor attachment of virus to target cells. […] RNA was then extracted from the cell pellets and amplified with DENV2-specific primers to quantitate the presence of virus. […]

[9] = test system: DENV2
Experimental: (§1) Twenty-four hours prior to infection, LLC-MK2 target cells were seeded at a density of 1.0×10^5 cells per well of an E-well plate. Approximately 200 FFU of virus were incubated with or without peptides in serum-free DMEM for 1 h at 20° C. Virus/peptide or virus/control mixtures were allowed to infect confluent target cell monolayers for 1 h at 37° C., rocking every 15 min, after which time the medium was aspirated and monolayers overlaid with fresh DMEM plus v/v 10% FBS containing v/v 0.85% Sea-Plaque Agarose (Cambrex Bio Science, Rockland, Me.). To allow proper setting, monolayers with agar overlays were incubated 20 min at 4° C. Next, infected cells were incubated at 37° C. with 5% CO2 for three days (DENV1, -3, and -4) or five days (DENV2). Then, infected cultures were fixed with 10% formalin overnight at 4° C., permeabilized with v/v 70% ethanol for 20 min, and rinsed with phosphate-buffered saline, pH 7.4 (PBS) prior to immunostaining. Viral foci were detected and enumerated using supernatant from mouse anti-DENV hybridoma E60 (obtained from the Department of Pathology & Immunology, Washington University, St. Louis, Mo.) followed by horseradish peroxidase-conjugated goat anti-mouse immunoglobulin (Pierce, Rockford, Ill.) and developed using AEC chromogen substrate (Dako, Carpinteria, Calif.). Results have been expressed as an average of two independent trials (at least) with three replicates each.

[10] = test system: DENV3
Experimental: as §1

[11] = test system: DENV1
Experimental: as §1

[12] = test system: DENV4
Experimental: as §1

[13] = test system: DENV2; details: as previously observed; cited from earlier work

CSCC[C@H](NC(=O)[C@H](Cc1c[nH]c2ccccc12)NC(=O)[C@@H](N)CCCNC(=N)N)C(=O)N[C@H](C(=O)N[C@@H](Cc1c[nH]c2ccccc12)C(=O)N[C@@H](CCCNC(=N)N)C(=O)N[C@@H](Cc1c[nH]cn1)C(=O)N[C@@H](Cc1c[nH]c2ccccc12)C(=O)N[C@@H](Cc1ccccc1)C(=O)N[C@@H](Cc1c[nH]cn1)C(=O)N[C@@H](CCCNC(=N)N)C(=O)N[C@@H](CC(C)C)C(=O)N[C@@H](CCCNC(=N)N)C(=O)N[C@@H](CC(C)C)C(=O)N1CCC[C@H]1C(=O)N[C@@H](Cc1ccc(O)cc1)C(=O)N[C@@H](CC(N)=O)C(=O)N1CCC[C@H]1C(=O)NCC(=O)N[C@@H](CCCCN)C(=O)N[C@@H](CC(N)=O)C(=O)N[C@@H](CCCCN)C(=O)N[C@@H](CCC(N)=O)C(=O)N[C@@H](CC(N)=O)C(=O)N[C@@H](CCC(N)=O)C(=O)N[C@@H](CCC(N)=O)C(=O)N[C@@H](Cc1c[nH]c2ccccc12)C(=O)N1CCC[C@H]1C(=O)O)C(C)C [DN57, reference compound] (H-RWMVWRHWFHRLRLPYNPGKNKQNQQWP-OH; N-terminus and C-terminus assumed)
trypsin cleavage (e-gel) [1]: degraded | DENV-2 infection after virus binding to cells, before entry [2]: inhibits DENV-2 infection | viral replication when peptide added post-entry [3]: no inhibition of viral replication was observed | % Infection Inhibition ([4]; DENV2 + 20 uM peptide): 96.4% | % Infection Inhibition ([4]; DENV2 + 20 uM peptide + Trypsin + STI (trypsin ten minutes at 37° C.)): 5.2% | DENV2 inhibitory activity after trypsin exposure ([4]; trypsin ten minutes at 37° C. before STI): did not | degradation in normal human serum (e-gel) [5]: absent | % DENV2 Infection Inhibition ([6]; PBS Rinse (text: peptide diluted 10-fold after incubation, then infecting)): −2.8% | % DENV2 Infection Inhibition ([6]; incubation with 10 μM/1 h at 20° C., no rinse): 83.1% | inhibition on treatment of target cells with peptide prior to DENV2 infection ([6]; peptide added to target cells for 1 h prior to infection): no evidence of inhibition | viability at 24 h, 0.1 µM [7]: 100% | viability at 24 h, 0.5 µM [7]: 98.6% | viability at 24 h, 1 µM [7]: 100% | viability at 24 h, 5 µM [7]: 97.8% | viability at 24 h, 10 µM [7]: 95.9% | viability at 24 h, 15 µM [7]: 92.8% | viability at 24 h, 20 µM [7]: 76.4% | viability at 24 h, 25 µM [7]: 80.2% | viability at 24 h, 30 µM [7]: 54.7% | viability at 24 h, 35 µM [7]: 55.1% | viability at 24 h, 40 µM [7]: 50.6% | % Infection Inhibition ([8]; DENV2 + 20 uM peptide): 96.4% | % Infection Inhibition ([8]; DENV2 + 20 uM peptide + Trypsin + STI): 5.2% | binding of virus to cells ([8]; virus co-incubated with peptide 45 min at 4° C.): inhibit binding of virus to cells

CSCC[C@@H](NC(=O)[C@H](NC(=O)[C@@H](Cc1c[nH]c2ccccc12)NC(=O)[C@@H](CCCNC(=N)N)NC(=O)[C@@H](Cc1c[nH]cn1)NC(=O)[C@@H](Cc1c[nH]c2ccccc12)NC(=O)[C@@H](Cc1ccccc1)NC(=O)[C@@H](Cc1c[nH]cn1)NC(=O)[C@@H](CCCNC(=N)N)NC(=O)[C@@H](CC(C)C)NC(=O)[C@@H](CCCNC(=N)N)NC(=O)[C@@H](CC(C)C)NC(=O)[C@H]1CCCN1C(=O)[C@@H](Cc1ccc(O)cc1)NC(=O)[C@@H](CC(N)=O)NC(=O)[C@H]1CCCN1C(=O)CNC(=O)[C@@H](CCCCN)NC(=O)[C@@H](CC(N)=O)NC(=O)[C@@H](CCCCN)NC(=O)[C@@H](CCC(N)=O)NC(=O)[C@@H](CC(N)=O)NC(=O)[C@@H](CCC(N)=O)NC(=O)[C@@H](CCC(N)=O)NC(=O)[C@@H](Cc1c[nH]c2ccccc12)NC(=O)[C@H]1CCCN1)C(C)C)C(=O)N[C@H](Cc1c[nH]c2ccccc12)C(=O)N[C@H](CCCNC(=N)N)C(=O)O [RI57] (H-[dP][dW][dQ][dQ][dN][dQ][dK][dN][dK]G[dP][dN][dY][dP][dL][dR][dL][dR][dH][dF][dW][dH][dR][dW][dV][dM][dW][dR]-OH; N-terminus and C-terminus assumed)
trypsin cleavage (e-gel) [1]: resistant to trypsin cleavage | % Inhibition DENV2 ([9]; 0.1 uM peptide): 6.2% | % Inhibition DENV2 ([9]; 0.5 uM peptide): −1.7% | % Inhibition DENV2 ([9]; 1.0 uM peptide): −5.9% | % Inhibition DENV2 ([9]; 5.0 uM peptide): 4.3% | % Inhibition DENV2 ([9]; 10.0 uM peptide): 69.8% | % Inhibition DENV2 ([9]; 20.0 uM peptide): 97.8% | IC50 ([9]; DENV2, sigmoidal curve-fitting to dose-response curve): 7.4 µM | % Inhibition DENV3 ([10]; 0.1 uM peptide): 15.1% | % Inhibition DENV3 ([10]; 0.5 uM peptide): 3.3% | % Inhibition DENV3 ([10]; 1.0 uM peptide): −73.1% | % Inhibition DENV3 ([10]; 5.0 uM peptide): −9.7% | % Inhibition DENV3 ([10]; 10.0 uM peptide): 63.3% | % Inhibition DENV3 ([10]; 20.0 uM peptide): 90.1% | IC50 ([10]; DENV3, sigmoidal curve-fitting to dose-response curve): 5.9 µM | % Inhibition DENV1 ([11]; 0.1 uM peptide): 2.4% | % Inhibition DENV1 ([11]; 0.5 uM peptide): 16.2% | % Inhibition DENV1 ([11]; 1.0 uM peptide): −43.6% | % Inhibition DENV1 ([11]; 5.0 uM peptide): 63.8% | % Inhibition DENV1 ([11]; 10.0 uM peptide): 97.3% | % Inhibition DENV1 ([11]; 20.0 uM peptide): 100.0% | IC50 ([11]; DENV1, sigmoidal curve-fitting to dose-response curve): 4.6 µM | degradation in normal human serum (e-gel) [5]: remains completely intact | viability at 24 h, 0.1 µM [7]: 95.9% | viability at 24 h, 0.5 µM [7]: 96.5% | viability at 24 h, 1 µM [7]: 95% | viability at 24 h, 5 µM [7]: 95.9% | viability at 24 h, 10 µM [7]: 95.3% | viability at 24 h, 15 µM [7]: 100% | viability at 24 h, 20 µM [7]: 101% | viability at 24 h, 25 µM [7]: 101% | viability at 24 h, 30 µM [7]: 104% | viability at 24 h, 35 µM [7]: 94.3% | viability at 24 h, 40 µM [7]: 92% | % Inhibition DENV4 ([12]; 0.1 uM peptide): 18.9% | % Inhibition DENV4 ([12]; 0.5 uM peptide): −0.7% | % Inhibition DENV4 ([12]; 1.0 uM peptide): −11.8% | % Inhibition DENV4 ([12]; 5.0 uM peptide): −41.8% | % Inhibition DENV4 ([12]; 10.0 uM peptide): 55.5% | % Inhibition DENV4 ([12]; 20.0 uM peptide): 94.4%

heparin sulfate
binding of dengue virus to cells (control) [13]: dramatically reduces binding of dengue virus to cells

— patent US10639380B2, “Flavivirus-binding, entry-obstructing, protease-resistant peptide (RI57)” (priority 2016, dated 2020)
